Test results reported in patent publication US7691857B2, “Muscarinic agents as therapeutic compounds” (Muscagen Limited, priority 2003, dated 2010).

Molecular target: M1 receptor (Oryctolagus cuniculus, UniProt G1SR55)
Test: Functional assay of M1 receptor activity, electrically stimulated rabbit vas deferens preparation
Excerpt: M1 receptor activity of a compound of the invention may be examined with the rabbit vas deferens using a method developed from that described previously (Dorje F, Rettenmayr N, Mutschler E and Lambrecht G, Eur J Pharmacol 1991, 203, 417-420). The tissue is stimulated electrically to contract and the conditions are optimized so that M1 receptor agonists produce a concentration-related inhibition of contraction height. Any activity at M2 receptors is indicated by an increase in the contraction height. M2 receptor activity may also be recorded from increases in contraction of the guinea-pig paced left atria. M3 receptor activity is measured from the contraction of the guinea-pig ileum. […]
Initial evaluation of the test compound is by assay of functional tissue responses. This has the advantage that it readily discriminates between agonist, partial agonist and antagonist activity. […]
Male New Zealand white rabbits (1.47-3.4 Kg) are killed by a blow to the back of the head and vasa deferentia removed, dissected free of connective tissue and divided into prostatic and epididmyal portions. […] Isometric tension is recorded by computer at a sampling rate of 100 Hz, using Powerlab/200 (ADInstruments) software and MacLab bridge amplifiers. […]

Chain of M1 receptor (G1SR55 1-460): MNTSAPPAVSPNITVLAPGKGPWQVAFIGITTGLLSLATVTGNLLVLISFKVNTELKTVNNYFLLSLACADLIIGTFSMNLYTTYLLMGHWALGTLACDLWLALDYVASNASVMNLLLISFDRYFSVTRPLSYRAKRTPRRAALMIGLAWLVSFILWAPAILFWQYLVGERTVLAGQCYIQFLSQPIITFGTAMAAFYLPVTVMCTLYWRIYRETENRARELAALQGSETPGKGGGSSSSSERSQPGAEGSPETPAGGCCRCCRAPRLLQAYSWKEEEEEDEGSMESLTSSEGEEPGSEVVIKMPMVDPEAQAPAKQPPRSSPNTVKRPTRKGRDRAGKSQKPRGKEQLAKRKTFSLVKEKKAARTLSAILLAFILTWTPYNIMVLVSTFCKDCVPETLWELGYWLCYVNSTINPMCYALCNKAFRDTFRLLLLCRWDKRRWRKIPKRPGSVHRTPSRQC

EC50 (M1 agonism, inhibition of twitch height in field-stimulated rabbit vas deferens, read-out: potency (EC50 value)): 100 nM
partial M1 agonist (extent of agonism) (rabbit vas deferens functional tissue response): 50%
Compound: COCC1CNCC2(C3CCC3)C1OC(=O)N2Cc1ccccc1 (centres unmarked) [Example 1, 3-Benzyl-3a-cyclobutyl-7-methoxymethyl-2-oxo-octahydro-oxazolo[4,5-c]pyridin-5-ium]
